Structures can show the parent of a compound that is named as a salt.
What follows are molecules tested against T1, BACE1 enzyme (Homo sapiens, UniProt P56817) (assay: Radioligand displacement assay with a radiolabeled BACE inhibitor on HEK293-9B.A1 cell homogenate). Conditions: not given.
T1 construct: The HEK293-9B.A1 cell line, which overexpresses the BACE1 enzyme, was derived from HEK293 cells; endogenous in cells; washed 48,000 x g pellet of the cell homogenate
T1 sequence (P56817 46-501): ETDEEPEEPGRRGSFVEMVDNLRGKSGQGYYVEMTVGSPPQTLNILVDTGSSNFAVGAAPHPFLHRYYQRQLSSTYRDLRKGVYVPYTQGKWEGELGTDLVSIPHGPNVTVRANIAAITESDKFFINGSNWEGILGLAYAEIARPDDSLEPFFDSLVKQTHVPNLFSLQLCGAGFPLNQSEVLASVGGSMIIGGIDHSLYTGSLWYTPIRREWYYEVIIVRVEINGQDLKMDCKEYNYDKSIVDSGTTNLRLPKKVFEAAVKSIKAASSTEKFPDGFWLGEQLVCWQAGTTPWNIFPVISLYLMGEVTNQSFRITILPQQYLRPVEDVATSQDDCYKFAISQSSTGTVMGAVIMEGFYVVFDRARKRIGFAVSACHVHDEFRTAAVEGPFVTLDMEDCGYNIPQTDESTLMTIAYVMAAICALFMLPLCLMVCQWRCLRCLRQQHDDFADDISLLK
Type: binding
Procedure: Radioligand displacement assays with a radiolabeled BACE inhibitor (WO 2004 013098, compound 3, where the methoxy group is substituted for C(^3H)3) were carried out using standard methods (Keen, M. (1999) in Receptor Binding Techniques (Walker, J. M. ed) p. 106 Humana Press, Totowa, N.J.). The HEK293-9B.A1 cell line, which overexpresses the BACE1 enzyme, was derived from HEK293 cells (Simmons, N. L. (1990) A cultured human renal epitheloid cell line responsive to vasoactive intestinal peptide. Exp. Physiol. 75:309-19.) by RAGE™ (Harrington, J. J. et al. (2001) Creation of genome-wide protein expression libraries using random activation of gene expression. Nat. Biotechnol. 19:440-5; U.S. Pat. Nos. 6,410,266 and 6,361,972). T225 flask cultures of HEK293-9B.A1 were grown to 80% confluency in DMEM supplemented with 2 mM L-glutamine, 10 μg/ml penicillin, 10 μg/ml streptomycin, 3 μg/ml puromycin, 100 nM methotrexate, and 10% fetal bovine serum (Invitrogen, Carlsbad, Calif.), harvested, and resuspended at 2×10^8 cells per 10 ml of lysis buffer consisting of 50 mM HEPES pH 7.0 containing a protease inhibitor cocktail of AEBSF 104 μM, aprotinin 80 nM, leupeptin 2 μM, bestatin 4 μM, pepstatin A 1.5 μM, and E-64 1.4 μM (0.1% of protease inhibitor cocktail P8340, Sigma-Aldrich, St. Louis, Mo.) at 4° C. The resuspended cells were homogenized using a Polytron (Brinkman, Westbury, N.Y.) at setting 6 for 10 sec., then centrifuged at 48,000×g for 10 min. The resulting pellet was washed by repeating the resuspension, homogenization and centrifugation steps. The final pellet was resuspended in buffer at 4° C. to yield a total protein concentration of 5 mg/ml, then aliquots were frozen in liquid nitrogen for further storage at −70° C. Immediately before carrying out a binding assay, an aliquot of cell homogenate was thawed and diluted to a concentration of 100 μg/ml in assay buffer consisting of 50 mM HEPES pH 5.0 and 0.1% CHAPSO. Assays were initiated in polypropylene 96-well plates (Costar, Cambridge, Mass.) by the addition of 200 μl of cell homogenate to 50 μl of assay buffer containing 1 nM radioligand (WO 2004 013098, compound 3, where the methoxy group is substituted for C(^3H)3: 80 Ci/mMol) and various concentrations of unlabelled compounds, and incubated for 1.5 hr. at 25° C. Separation of bound from free radioligand was by filtration on GFF glass fiber filters (Innotech Biosystems International, Lansing, Mich.) using an Innotech cell harvester.
Work on `COc1cccc(CNC[C@@H](O)[C@H](Cc2cc(F)cc(F)c2)NC(=O)c2cc(C(=O)N[C@H](C)c3ccccc3)cc(C(C)O)c2)c1` (stereo partly drawn) [Example 45, N^1-((2S,3R)-4-(3-methoxybenzylamino)-1-(3,5-difluorophenyl)-3-hydroxybutan-2-yl)-5-(1-hydroxyethyl)-N^3-((R)-1-phenylethyl)isophthalamide TFA salt] yielded an IC50 of under 100 nM.
`C=CCO/N=C(/C)c1cc(C(=O)N[C@@H](Cc2cc(F)cc(F)c2)[C@H](O)CNCc2cccc(OC)c2)cc(C(=O)N[C@H](C)c2ccccc2)c1` [Example 46, N^1-((2S,3R)-4-(3-methoxybenzylamino)-1-(3,5-difluorophenyl)-3-hydroxybutan-2-yl)-5-((Z)-1-(allyloxyimino)ethyl)-N^3-((R)-1-phenylethyl)isophthalamide TFA salt] was tested, and the IC50 was under 100 nM.

Same assay, conditions: displacement of 1 nM tritiated radioligand, HEK293-9B.A1 homogenate, pH 5.0, 1.5 hr at 25° C.; read-out: Activity Rating (activity based on IC50 values)
Work on `COc1cccc(CNC[C@@H](O)[C@H](Cc2cc(F)cc(F)c2)NC(=O)c2cc(C(C)O)cc(N(c3ccccc3)S(C)(=O)=O)c2)c1` (stereo partly drawn) [Example 40, N-((2S,3R)-4-(3-methoxybenzylamino)-1-(3,5-difluorophenyl)-3-hydroxybutan-2-yl)-3-(1-hydroxyethyl)-5-(N-phenylmethan-10-ylsulfonamido)benzamide] yielded an IC50 of under 100 nM.
With `COc1cccc(CNC[C@@H](O)[C@H](Cc2cc(F)cc(F)c2)NC(=O)c2cc(/C(C)=N/OCC(C)C)cc(N(c3ccccc3)S(C)(=O)=O)c2)c1` [Example 41, N-((2S,3R)-4-(3-methoxybenzylamino)-1-(3,5-difluorophenyl)-3-hydroxybutan-2-yl)-3-((E)-1-(isobutoxyimino)ethyl)-5-(N-phenylmethan-10-ylsulfonamido)benzamide] the IC50 was 100 to 1000 nM.
Work on `C=CCO/N=C(\C)c1cc(C(=O)N[C@@H](Cc2cc(F)cc(F)c2)[C@H](O)CNCc2cccc(OC)c2)cc(N(c2ccccc2)S(C)(=O)=O)c1` [Example 42, N-((2S,3R)-4-(3-methoxybenzylamino)-1-(3,5-difluorophenyl)-3-hydroxybutan-2-yl)-3-((E)-1-(allyloxyimino)ethyl)-5-(N-phenylmethan-10-ylsulfonamido)benzamide] yielded an IC50 of under 100 nM.
`CCCO/N=C(\C)c1cc(C(=O)N[C@@H](Cc2cc(F)cc(F)c2)[C@H](O)CNCc2cccc(OC)c2)cc(N(c2ccccc2)S(C)(=O)=O)c1` [Example 43, N-((2S,3R)-4-(3-methoxybenzylamino)-1-(3,5-difluorophenyl)-3-hydroxybutan-2-yl)-3-(N-phenylmethan-10-ylsulfonamido)-5-((E)-1-(propoxyimino)ethyl)benzamide] gave an IC50 of under 100 nM.
`COc1cccc(CNC[C@@H](O)[C@H](Cc2cc(F)cc(F)c2)NC(=O)c2cc(C(C)=O)cc(C(=O)N[C@H](C)c3ccccc3)c2)c1` [Example 44, N^1-((2S,3R)-4-(3-methoxybenzylamino)-1-(3,5-difluorophenyl)-3-hydroxybutan-2-yl)-5-acetyl-N^3-((R)-1-phenylethyl)isophthalamide TFA salt] was tested, and the IC50 was under 100 nM.
`COc1cccc(CNC[C@@H](O)[C@H](Cc2cc(F)cc(F)c2)NC(=O)c2cc(C(C)=O)cc(C(=O)NC(C)c3ccc(F)cc3)c2)c1` (stereo partly drawn) [Example 47, N^1-((2S,3R)-4-(3-methoxybenzylamino)-1-(3,5-difluorophenyl)-3-hydroxybutan-2-yl)-5-acetyl-N^3-(1-(4-fluorophenyl)ethyl)isophthalamide TFA salt] was tested, and the IC50 was under 100 nM.
`COc1cccc(CNC[C@@H](O)[C@H](Cc2cc(F)cc(F)c2)NC(=O)c2cc(C(=O)NC(C)c3ccc(F)cc3)cc(C(C)O)c2)c1` (stereo partly drawn) [Example 48, N^1-((2S,3R)-4-(3-methoxybenzylamino)-1-(3,5-difluorophenyl)-3-hydroxybutan-2-yl)-N^3-(1-(4-fluorophenyl)ethyl)-5-(1-hydroxyethyl)isophthal-amide TFA salt] was tested, and the IC50 was under 100 nM.
`C=CCO/N=C(/C)c1cc(C(=O)NC(C)c2ccc(F)cc2)cc(C(=O)N[C@@H](Cc2cc(F)cc(F)c2)[C@H](O)CNCc2cccc(OC)c2)c1` (stereo partly drawn) [Example 49, N^1-((2S,3R)-4-(3-methoxybenzylamino)-1-(3,5-difluorophenyl)-3-hydroxybutan-2-yl)-5-((Z)-1-(allyloxyimino)ethyl)-N^3-(1-(4-fluorophenyl)ethyl)isophthalamide TFA salt] was tested, and the IC50 was 100 to 1000 nM.
In the case of `CO/N=C(/C)c1cc(C(=O)NC(C)c2ccc(F)cc2)cc(C(=O)N[C@@H](Cc2cc(F)cc(F)c2)[C@H](O)CNCc2cccc(OC)c2)c1` (stereo partly drawn) [Example 50, N^1-((2S,3R)-4-(3-methoxybenzylamino)-1-(3,5-difluorophenyl)-3-hydroxybutan-2-yl)-N^3-(1-(4-fluorophenyl)ethyl)-5-((Z)-1-(methoxyimino)ethyl)isophthalamide TFA salt], the IC50 is reported as under 100 nM.

From patent US7476764B2, “Phenylcarboxyamides as beta-secretase inhibitors” (Bristol-Myers Squibb Company, priority 2005, dated 2009)
